The values that follow come from ChEMBL document CHEMBL1153189, “The comparative antimalarial properties of weak base and neutral synthetic ozonides” (Bioorg Med Chem Lett, 2010).

In data set [1] the test system is Plasmodium falciparum. The data set is described as follows: Antimalarial activity against chloroquine-sensitive Plasmodium falciparum NF54. The format is functional, organism-based.
For data set [2], the system named is Plasmodium berghei. Description: Antimalarial activity against Plasmodium berghei infected in NMRI mice (Mus musculus) assessed as reduction in parasitaemia at 10 mg/kg, perorally administered 1 day post infection. As to conditions: route oral; call rule not given here. It counts as functional. On the set-up: scale not given: the % may be the effect or the level left.
The test system of data set [3] is Plasmodium berghei. The data set is described as follows: Antimalarial activity against Plasmodium berghei infected in NMRI mice (Mus musculus) assessed as reduction in parasitaemia at 3 mg/kg, perorally administered for 3 days post infection. It counts as functional. On the set-up: scale not given: the % may be the effect or the level left. As to conditions: route oral.

Data set [4] concerns Plasmodium berghei. The data set is described as follows: Antimalarial activity against Plasmodium berghei infected in NMRI mice (Mus musculus) assessed as survival time at 3 mg/kg, perorally administered for 3 days post infection. The format is functional. As to conditions: route oral.
The subject of data set [5] is Plasmodium berghei. Description: Antimalarial activity against Plasmodium berghei infected in NMRI mice (Mus musculus) assessed as cure rat at 3 mg/kg, perorally administered for 3 days post infection measured after 30 days. The format is functional. As to conditions: route oral.
In data set [6] the test system is Rattus norvegicus. The data set is described as follows: Half life in Sprague-Dawley rat at 10 mg/kg, iv. The format is ADME, organism-based. Set-up: dose 10 mg/kg, route intravenous. As to conditions: in vivo.
In data set [7] the test system is Rattus norvegicus. The data set is described as follows: Volume of distribution in Sprague-Dawley rat at 10 mg/kg, iv. As to conditions: in vivo. Set-up: dose 10 mg/kg, route intravenous. The format is ADME, organism-based.
Data set [8] is described as follows: Oral bioavailability in Sprague-Dawley rat at 10 mg/kg. It counts as ADME, organism-based. As to conditions: in vivo.
In the next data set the target is Cytochrome P450 2D6 (Homo sapiens, UniProt P10635). The data set is described as follows: Inhibition of CYP2D6. It counts as ADME.
The target of another data set is Cytochrome P450 3A4 (Homo sapiens, UniProt P08684). Description: Inhibition of CYP3A4. It counts as ADME.
For a further data set, the target named is Cytochrome P450 2C9 (Homo sapiens, UniProt P11712). Description: Inhibition of CYP2C9. It counts as ADME.
The target of another data set is Cytochrome P450 2C19 (Homo sapiens, UniProt P33261). The data set is described as follows: Inhibition of CYP2C19. The format is ADME.
Data set [9] can be described thus: Lipophilicity, log D at pH 7.4. The format is physicochemical. As to conditions: buffer.
The nature of another data set: in vitro. As to conditions: human, liver microsomes. Background: Liver microsomes are a subcellular fraction often used to study metabolism.
The test system of data set [10] is Plasmodium falciparum. The data set is described as follows: Antimalarial activity against chloroquine-resistant Plasmodium falciparum K1. The format is functional, organism-based.

Each structure is given as a SMILES string. Converted amounts (≈) assume the structure as drawn. Bounds are passed on as bounds.

Sequence of Cytochrome P450 2D6 (P10635 whole entry): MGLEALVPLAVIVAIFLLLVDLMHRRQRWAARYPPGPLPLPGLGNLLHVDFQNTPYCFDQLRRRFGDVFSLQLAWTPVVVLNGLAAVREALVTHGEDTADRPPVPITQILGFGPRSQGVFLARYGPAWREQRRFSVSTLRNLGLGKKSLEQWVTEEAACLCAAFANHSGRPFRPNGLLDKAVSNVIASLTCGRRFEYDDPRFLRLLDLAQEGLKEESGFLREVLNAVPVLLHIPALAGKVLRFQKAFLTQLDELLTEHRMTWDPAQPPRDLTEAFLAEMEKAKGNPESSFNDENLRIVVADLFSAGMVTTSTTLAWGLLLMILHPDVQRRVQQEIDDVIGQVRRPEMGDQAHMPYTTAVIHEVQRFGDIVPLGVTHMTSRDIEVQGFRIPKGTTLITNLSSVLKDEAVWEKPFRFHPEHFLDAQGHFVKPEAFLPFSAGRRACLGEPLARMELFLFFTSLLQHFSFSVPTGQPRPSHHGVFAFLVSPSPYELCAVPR
Sequence of Cytochrome P450 2C9 (P11712 whole entry): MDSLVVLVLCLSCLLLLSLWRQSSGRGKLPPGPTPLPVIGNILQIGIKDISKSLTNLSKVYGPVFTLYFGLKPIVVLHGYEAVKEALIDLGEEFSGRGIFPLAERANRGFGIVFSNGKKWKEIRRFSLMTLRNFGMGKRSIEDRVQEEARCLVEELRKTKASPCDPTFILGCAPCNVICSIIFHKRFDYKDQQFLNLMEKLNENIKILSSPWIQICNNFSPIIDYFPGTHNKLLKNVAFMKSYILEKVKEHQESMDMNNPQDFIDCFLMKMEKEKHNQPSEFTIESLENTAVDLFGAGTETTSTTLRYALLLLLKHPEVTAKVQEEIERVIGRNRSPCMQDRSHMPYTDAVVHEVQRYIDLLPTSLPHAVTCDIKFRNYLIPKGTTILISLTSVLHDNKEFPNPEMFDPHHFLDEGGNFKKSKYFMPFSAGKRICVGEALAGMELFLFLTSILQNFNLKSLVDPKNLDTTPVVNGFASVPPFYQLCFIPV
Sequence of Cytochrome P450 3A4 (P08684 whole entry): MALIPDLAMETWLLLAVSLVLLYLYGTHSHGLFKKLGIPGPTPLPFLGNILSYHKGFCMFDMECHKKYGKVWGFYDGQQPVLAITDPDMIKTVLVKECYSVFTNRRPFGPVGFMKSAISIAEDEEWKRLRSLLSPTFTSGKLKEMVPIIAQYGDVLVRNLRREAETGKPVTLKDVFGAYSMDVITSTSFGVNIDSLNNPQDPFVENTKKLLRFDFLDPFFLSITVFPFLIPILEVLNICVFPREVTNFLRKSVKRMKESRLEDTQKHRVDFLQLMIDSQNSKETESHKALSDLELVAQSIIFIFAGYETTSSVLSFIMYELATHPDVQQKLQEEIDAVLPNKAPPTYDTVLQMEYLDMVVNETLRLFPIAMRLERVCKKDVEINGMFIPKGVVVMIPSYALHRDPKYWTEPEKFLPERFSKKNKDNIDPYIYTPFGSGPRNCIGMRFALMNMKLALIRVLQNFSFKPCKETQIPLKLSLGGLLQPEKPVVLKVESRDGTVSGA
Sequence of Cytochrome P450 2C19 (P33261 whole entry): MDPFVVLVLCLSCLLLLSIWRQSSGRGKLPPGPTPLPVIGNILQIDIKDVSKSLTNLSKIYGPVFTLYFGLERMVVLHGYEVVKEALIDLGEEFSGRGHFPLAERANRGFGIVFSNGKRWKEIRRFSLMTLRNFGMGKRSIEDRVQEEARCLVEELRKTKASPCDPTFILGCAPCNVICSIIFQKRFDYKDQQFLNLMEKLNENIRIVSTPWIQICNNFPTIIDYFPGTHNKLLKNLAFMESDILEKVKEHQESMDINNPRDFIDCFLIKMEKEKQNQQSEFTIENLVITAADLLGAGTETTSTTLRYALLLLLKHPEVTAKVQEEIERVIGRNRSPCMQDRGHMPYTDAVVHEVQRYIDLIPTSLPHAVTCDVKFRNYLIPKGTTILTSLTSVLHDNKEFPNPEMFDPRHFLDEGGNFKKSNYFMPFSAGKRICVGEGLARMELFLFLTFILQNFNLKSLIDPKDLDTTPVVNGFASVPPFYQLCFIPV
Description for in vitro: Metabolic stability in human liver microsomes assessed as hepatic extraction ratio

In turn, `O=C(NCC1CCC2(CC1)OOC1(O2)C2CC3CC(C2)CC1C3)c1ccccn1` (stereo not given) came in with an IC50 in the data set with Plasmodium falciparum [1] of 1.1 ng/mL (≈ 2.76 nM). Besides, the Activity in the data set with Plasmodium berghei [2] came to 99.6%.

As to `NC[C@H]1CC[C@]2(CC1)OOC1(O2)C2CC3CC(C2)CC1C3` (stereo not given in full), the Activity with Plasmodium berghei [2] is greater than 99.9%; in the data set with Plasmodium berghei [3], greater than 99.9%; in the data set with Plasmodium berghei [5], 0%; on Cytochrome P450 2D6 it was “Not Active”. The Survival with Plasmodium berghei [4] stood at 12.8 days. In the data set with Rattus norvegicus [6], the t1/2 is 1.5 h. This compound showed a Vd with Rattus norvegicus [7] of 46 L/kg. The same compound returned a bioavailability in data set [8] of 31%. Further, the IC50 on Cytochrome P450 3A4 stood at 9.7 µM; at Cytochrome P450 2C9 it was 17 µM; at Cytochrome P450 2C19, 0.11 µM. In data set [9], this compound had a logD of 2.6. Further, the hepatic extraction ratio in “in vitro” is 0.24.

In the case of `Cc1ccc(S(=O)(=O)O)cc1.Cc1ccc(S(=O)(=O)O)cc1.O=C(CN1CCNCC1)NC[C@H]1CC[C@]2(CC1)OO[C@]1(O2)C2CC3CC(C2)CC1C3`, the IC50 in the data set on Plasmodium falciparum [10] amounted to 0.59 ng/mL; with Plasmodium falciparum [1], 1.4 ng/mL. In addition, the Activity in the data set with Plasmodium berghei [2] came to 99.7%.

In the case of `O=CNCC(=O)NC[C@H]1CC[C@]2(CC1)OO[C@]1(O2)C2CC3CC(C2)CC1C3`, the IC50 in the data set on Plasmodium falciparum [10] stood at 0.9 ng/mL (≈ 2.38 nM). Further, in the data set with Plasmodium berghei [2], the Activity is 98%.

Take `O=C(O)CCC(=O)NC[C@H]1CC[C@]2(CC1)OO[C@]1(O2)C2CC3CC(C2)CC1C3`: the results for the IC50 in the data set with Plasmodium falciparum [10] and in the data set on Plasmodium falciparum [1] were 71 ng/mL (≈ 180 nM) and 97 ng/mL (≈ 247 nM), respectively. Further, in the data set with Plasmodium berghei [2], the Activity is on record as less than 40%.

With `O=C1CNC(=O)N1C[C@H]1CC[C@]2(CC1)OO[C@]1(O2)C2CC3CC(C2)CC1C3`, the IC50 in the data set with Plasmodium falciparum [10] is 1 ng/mL (≈ 2.66 nM); with Plasmodium falciparum [1], 2.7 ng/mL (≈ 7.17 nM). For the same compound, in the data set with Plasmodium berghei [2], the Activity is listed as 92%.

Regarding `CS(=O)(=O)O.NCC(=O)NC[C@H]1CC[C@]2(CC1)OO[C@]1(O2)C2CC3CC(C2)CC1C3`, the IC50 came to 0.36 ng/mL with Plasmodium falciparum [10] and 0.29 ng/mL in the data set with Plasmodium falciparum [1]. Further, the Activity is recorded as 99.9% in the data set with Plasmodium berghei [2], greater than 99.9% in the data set with Plasmodium berghei [3] and 0% with Plasmodium berghei [5].

With `NC1(C(=O)NC[C@H]2CC[C@]3(CC2)OO[C@]2(O3)C3CC4CC(C3)CC2C4)CCCCC1`, the IC50 with Plasmodium falciparum [10] was 0.24 ng/mL (≈ 0.573 nM); in the data set on Plasmodium falciparum [1], 0.44 ng/mL (≈ 1.05 nM). The Activity in the data set on Plasmodium berghei [2] is given as 99.9%.

Consider `Cc1ccc(S(=O)(=O)O)cc1.NCCC(=O)NC[C@H]1CC[C@]2(CC1)OO[C@]1(O2)C2CC3CC(C2)CC1C3`, for which the Activity with Plasmodium berghei [2] is 99.9%; in the data set on Plasmodium berghei [3], greater than 99.9%; in the data set with Plasmodium berghei [5] it was 0%. In addition, in the data set with Plasmodium berghei [4], the Survival stood at 20.8 days.

In the case of `O=C(CN1CCOCC1)NC[C@H]1CC[C@]2(CC1)OO[C@]1(O2)C2CC3CC(C2)CC1C3.O=C(O)/C=C\C(=O)O`, the figures for the IC50 with Plasmodium falciparum [10] and in the data set with Plasmodium falciparum [1] were 0.88 ng/mL and 1.8 ng/mL, respectively. The Activity in the data set on Plasmodium berghei [2] was 99%. In addition, in data set [9], the pH-dependent lipophilicity (logD) was 5.

For `CS(=O)(=O)O.O=C(NC[C@H]1CC[C@]2(CC1)OO[C@]1(O2)C2CC3CC(C2)CC1C3)C(=O)N1CCNCC1`, the values for the IC50 with Plasmodium falciparum [10] and in the data set with Plasmodium falciparum [1] were 0.69 ng/mL and 0.54 ng/mL, respectively. For the same compound, the Activity in the data set with Plasmodium berghei [2] is reported as 99.9%.

Turning to `NC(=O)NC[C@H]1CC[C@]2(CC1)OO[C@]1(O2)C2CC3CC(C2)CC1C3`, the IC50 in the data set with Plasmodium falciparum [10] amounted to 0.56 ng/mL (≈ 1.66 nM); with Plasmodium falciparum [1], 1.6 ng/mL (≈ 4.76 nM). For the same compound, the Activity with Plasmodium berghei [2] is recorded as 98%.

In the case of `O=C(NC[C@H]1CC[C@]2(CC1)OO[C@]1(O2)C2CC3CC(C2)CC1C3)c1ccncc1`, the IC50 in the data set with Plasmodium falciparum [10] came to 2.2 ng/mL (≈ 5.52 nM); in the data set with Plasmodium falciparum [1] it was 1.1 ng/mL (≈ 2.76 nM). The Activity with Plasmodium berghei [2] stood at 99.5%.

For `CS(=O)(=O)O.O=C(NC[C@H]1CC[C@]2(CC1)OO[C@]1(O2)C2CC3CC(C2)CC1C3)c1c[nH]cn1`, the IC50 in the data set with Plasmodium falciparum [10] was determined as 0.84 ng/mL; in the data set on Plasmodium falciparum [1], 1.1 ng/mL. Also, the Activity in the data set on Plasmodium berghei [2] stood at 99.5%.

Consider `CCNC(=O)NC[C@H]1CC[C@]2(CC1)OO[C@]1(O2)C2CC3CC(C2)CC1C3`, for which, in the data set with Plasmodium berghei [2], the Activity amounted to 98%.

Regarding `O=C(NC[C@H]1CC[C@]2(CC1)OO[C@]1(O2)C2CC3CC(C2)CC1C3)N1CCOCC1`, the Activity in the data set on Plasmodium berghei [2] worked out at 98%.

On to `Cc1ccc(S(=O)(=O)O)cc1.O=C(NC[C@H]1CC[C@]2(CC1)OO[C@]1(O2)C2CC3CC(C2)CC1C3)N1CCNCC1`, for which the IC50 with Plasmodium falciparum [10] stood at 0.43 ng/mL; with Plasmodium falciparum [1], 0.68 ng/mL. Further, the Activity in the data set on Plasmodium berghei [2] was greater than 99.9%; with Plasmodium berghei [3], greater than 99.9%; with Plasmodium berghei [5], 40%. Moreover, in the data set with Plasmodium berghei [4], the Survival turned out to be 27 days.

Regarding `NC1(C(=O)NC[C@H]2CC[C@]3(CC2)OO[C@]2(O3)C3CC4CC(C3)CC2C4)CCCC1`, the IC50 with Plasmodium falciparum [10] turned out to be 0.33 ng/mL (≈ 0.816 nM); in the data set with Plasmodium falciparum [1], 0.36 ng/mL (≈ 0.89 nM). The Activity in the data set on Plasmodium berghei [2] is listed as 99.9%.

Usually IC50 stands for the point on the concentration scale where inhibition reaches its midpoint. The Vd is the apparent volume that relates the amount in the body to the concentration in plasma or blood. The term bioavailability denotes the share of a dose that reaches the circulation, judged against a reference dose that is usually intravenous. A word on the logD: it is lipophilicity at a set pH, counting ionised and neutral species.
